Target: T1, C-terminal GST-tagged, recombinant, human IGF-1R, amino acids 954-1367 (Homo sapiens, UniProt P08069)
T1 construct: human IGF-1R, amino acids 954-1367 expressed by baculovirus in Sf21 cells; GST (C); purchased Cell Signaling Technology; host or cells: baculovirus in Sf21 cells
Assay: IGF-1R kinase activity, homogenous time-resolved fluorescence (HTRF) in vitro kinase assay
Assay type: biochemical
Conditions: IGF-1R kinase HTRF assay, ATP 50 μM, biotinylated peptide substrate 0.5 μM, 60 minutes at room temperature
Method: IGF-1R kinase activity was assayed by a homogenous time-resolved fluorescence (HTRF) in vitro kinase assay (Mathis, G., HTRF(R) Technology. J Biomol Screen, 1999. 4(6): p. 309-314). Specifically, 10 μL C-terminal GST-tagged, recombinant, human IGF-1R, amino acids 954-1367 expressed by baculovirus in Sf21 cells (Cell Singaling Technology) was mixed with 10 μL inhibitor (various concentrations, 2% final DMSO) and 10 μL of ATP (50 μM final concentration) in reaction buffer (50 mM HEPES, pH […], 2 mM MnCl2, 0.1% BSA and 1 mM DTT, 40 μL final volume). The reaction was initiated by addition of 10 μL of biotinylated peptide substrate (Biotin-Ahx-[…], 0.5 μM final concentration) in a black 384-well plate (Packard). After 60 minutes incubation at room temperature, the reaction was quenched by addition of 60 μL stop/revelation buffer to give 30 mM EDTA, 1 μg/mL streptavidin-APC (Prozyme), 50 ng/mL anti-phosphotyrosine mAb PT66-K Europium Cryptate, 30 mM HEPES, pH 7.5, 120 mM KF, 0.005% Tween-20, 0.05% BSA). The quenched reaction was allowed to stand at room temperature for 1 hour and then read in a time-resolved fluorescence detector (Envision, Perkin Elmer) at 615 nm and 665 nm simultaneously. The ratio between the signal of 615 nm and 665 nm was used in the calculation of the IC50.

T1 sequence (P08069 954-1367): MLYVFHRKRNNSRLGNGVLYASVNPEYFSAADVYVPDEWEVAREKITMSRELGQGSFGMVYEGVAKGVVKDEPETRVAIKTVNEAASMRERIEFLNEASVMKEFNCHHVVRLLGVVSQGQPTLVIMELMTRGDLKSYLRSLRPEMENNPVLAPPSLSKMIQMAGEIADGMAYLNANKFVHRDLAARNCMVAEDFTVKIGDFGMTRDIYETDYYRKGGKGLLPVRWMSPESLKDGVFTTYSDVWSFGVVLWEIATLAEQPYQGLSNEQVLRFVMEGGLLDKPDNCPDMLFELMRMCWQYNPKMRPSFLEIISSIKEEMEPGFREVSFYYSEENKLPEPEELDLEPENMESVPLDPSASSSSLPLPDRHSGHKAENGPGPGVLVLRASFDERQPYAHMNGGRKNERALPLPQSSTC

Compound	IC50 [nM]
COc1cc(-c2nc3ccccn3c2-c2ccnc(Nc3cccc(OCCN4CCCC4)c3)n2)ccc1OCc1ccccc1 [Example 30, 4-{2-[4-(benzyloxy)-3-methoxyphenyl]imidazo[1,2-a]pyridin-3-yl}-N-[3-(2-pyrrolidin-1-ylethoxy)phenyl]pyrimidin-2-amine]	< 25
CCN(CCO)c1cccc(Nc2nccc(-c3c(-c4ccc(OCc5ccccc5)c(OC)c4)nc4ccccn34)n2)c1 [Example 31, 2-[{3-[(4-{2-[4-(benzyloxy)-3-methoxyphenyl]imidazo[1,2-a]pyridin-3-yl}pyrimidin-2-yl)amino]phenyl}(ethyl)amino]ethanol]	101 to 500
COc1cc(-c2nc3ccccn3c2-c2ccnc(Nc3ccc(N4CCS(=O)(=O)CC4)cc3)n2)ccc1OCc1ccccc1 [Example 32, 4-{2-[4-(benzyloxy)-3-methoxyphenyl]imidazo[1,2-a]pyridin-3-yl}-N-[4-(1,1-dioxidothiomorpholin-4-yl)phenyl]pyrimidin-2-amine]	101 to 500
COc1cc(N2CCC(N(C)C)CC2)ccc1Nc1nccc(-c2c(-c3ccc(OCc4ccccc4)c(OC)c3)nc3ccccn23)n1 [Example 33, 4-{2-[4-(benzyloxy)-3-methoxyphenyl]imidazo[1,2-a]pyridin-3-yl}-N-{4-[4-(dimethylamino)piperidin-1-yl]-2-methoxyphenyl}pyrimidin-2-amine]	25 to 100
COc1ccc(S(C)(=O)=O)cc1Nc1nccc(-c2c(-c3ccc(OCc4ccccc4)c(OC)c3)nc3ccccn23)n1 [Example 34, 4-{2-[4-(benzyloxy)-3-methoxyphenyl]imidazo[1,2-a]pyridin-3-yl}-N-[2-methoxy-5-(methylsulfonyl)phenyl]pyrimidin-2-amine]	25 to 100
COc1ccc(S(C)(=O)=O)cc1Nc1nccc(-c2c(-c3ccc(OCc4ccccc4)cc3)nc3ccccn23)n1 [Example 35, 4-{2-[4-(benzyloxy)phenyl]imidazo[1,2-a]pyridin-3-yl}-N-[2-methoxy-5-(methylsulfonyl)phenyl]pyrimidin-2-amine]	101 to 500
COc1cc(-c2nc3ccccn3c2-c2ccnc(Nc3ccc(N4CCC(N(C)C)CC4)cc3)n2)ccc1OCc1ccccc1 [Example 36, 4-{2-[4-(benzyloxy)-3-methoxyphenyl]imidazo[1,2-a]pyridin-3-yl}-N-{4-[4-(dimethylamino)piperidin-1-yl]phenyl}pyrimidin-2-amine]	< 25
COc1cc(-c2nc3ccccn3c2-c2ccnc(Nc3cnn(CCN4CCCC4)c3)n2)ccc1OCc1ccccc1 [Example 37, 4-{2-[4-(benzyloxy)-3-methoxyphenyl]imidazo[1,2-a]pyridin-3-yl}-N-[1-(2-pyrrolidin-1-ylethyl)-1H-pyrazol-4-yl]pyrimidin-2-amine]	101 to 500
COc1cc(-c2nc3ccccn3c2-c2ccnc(Nc3cccc(CCN(C)CCO)c3)n2)ccc1OCc1ccccc1 [Example 38, 2-[(2-{3-[(4-{2-[4-(benzyloxy)-3-methoxyphenyl]imidazo[1,2-a]pyridin-3-yl}pyrimidin-2-yl)amino]phenyl}ethyl)(methyl)amino]ethanol]	25 to 100
COc1cc(N2CCOCC2)ccc1Nc1nccc(-c2c(-c3ccc(OCc4ccccc4)c(OC)c3)nc3ccccn23)n1 [Example 39, 4-{2-[4-(benzyloxy)-3-methoxyphenyl]imidazo[1,2-a]pyridin-3-yl}-N-(2-methoxy-4-morpholin-4-ylphenyl)pyrimidin-2-amine]	101 to 500
COc1ccc(C(F)(F)F)cc1Nc1nccc(-c2c(-c3ccc(OCc4ccccc4)c(OC)c3)nc3ccccn23)n1 [Example 40, 4-{2-[4-(benzyloxy)-3-methoxyphenyl]imidazo[1,2-a]pyridin-3-yl}-N-[2-methoxy-5-(trifluoromethyl)phenyl]pyrimidin-2-amine]	> 1000
COc1ccc(C(F)(F)F)cc1Nc1nccc(-c2c(-c3ccc(OCc4ccccc4)cc3)nc3ccccn23)n1 [Example 41, 4-{2-[4-(benzyloxy)phenyl]imidazo[1,2-a]pyridin-3-yl}-N-[2-methoxy-5-(trifluoromethyl)phenyl]pyrimidin-2-amine]	> 1000
COc1cc(N(C)C)ccc1Nc1nccc(-c2c(-c3ccc(OCc4ccccc4)c(OC)c3)nc3ccccn23)n1 [Example 42, N^1-(4-{2-[4-(benzyloxy)-3-methoxyphenyl]imidazo[1,2-a]pyridin-3-yl}pyrimidin-2-yl)-2-methoxy-N^4,N^4-dimethylbenzene-1,4-diamine]	101 to 500
COc1cc(-c2nc3ccccn3c2-c2ccnc(Nc3cnn(CCN(C)C)c3)n2)ccc1OCc1ccccc1 [Example 43, 4-{2-[4-(benzyloxy)-3-methoxyphenyl]imidazo[1,2-a]pyridin-3-yl}-N-{1-[2-(dimethylamino)ethyl]-1H-pyrazol-4-yl}pyrimidin-2-amine]	101 to 500
COc1cc(-c2nc3ccccn3c2-c2ccnc(Nc3ccc(N4CCN(CCO)CC4)cc3)n2)ccc1OCc1ccccc1 [Example 44, 2-(4-{4-[(4-{2-[4-(benzyloxy)-3-methoxyphenyl]imidazo[1,2-a]pyridin-3-yl}pyrimidin-2-yl)amino]phenyl}piperazin-1-yl)ethanol]	25 to 100
COc1cc(NCC(C)(C)O)ccc1Nc1nccc(-c2c(-c3ccc(OCc4ccccc4)c(OC)c3)nc3ccccn23)n1 [Example 45, 1-({4-[(4-{2-[4-(benzyloxy)-3-methoxyphenyl]imidazo[1,2-a]pyridin-3-yl}pyrimidin-2-yl)amino]-3-methoxyphenyl}amino)-2-methylpropan-2-ol]	101 to 500
COc1cc(N)ccc1Nc1nccc(-c2c(-c3ccc(OCc4ccccc4)c(OC)c3)nc3ccccn23)n1 [Example 46, N^1-(4-{2-[4-(benzyloxy)-3-methoxyphenyl]imidazo[1,2-a]pyridin-3-yl}pyrimidin-2-yl)-2-methoxybenzene-1,4-diamine]	25 to 100
COc1cc(-c2nc3ccccn3c2-c2ccnc(Nc3cnn(CCO)c3)n2)ccc1OCc1ccccc1 [Example 47, 2-{4-[(4-{2-[4-(benzyloxy)-3-methoxyphenyl]imidazo[1,2-a]pyridin-3-yl}pyrimidin-2-yl)amino]-1H-pyrazol-1-yl}ethanol]	25 to 100
COc1cc(N(C)CCO)ccc1Nc1nccc(-c2c(-c3ccc(OCc4ccccc4)c(OC)c3)nc3ccccn23)n1 [Example 48, 2-[{4-[(4-{2-[4-(benzyloxy)-3-methoxyphenyl]imidazo[1,2-a]pyridin-3-yl}pyrimidin-2-yl)amino]-3-methoxyphenyl}(methyl)amino]ethanol]	101 to 500
CN(C)CCc1cccc(Nc2nccc(-c3c(-c4ccc(OCc5ccccc5)c(C(F)(F)F)c4)nc4ccccn34)n2)c1 [Example 49, 4-{2-[4-(benzyloxy)-3-(trifluoromethyl)phenyl]imidazo[1,2-a]pyridin-3-yl}-N-{3-[2-(dimethylamino)ethyl]phenyl}pyrimidin-2-amine]	> 1000
CCc1cc(-c2nc3ccccn3c2-c2ccnc(Nc3cccc(CCN(C)C)c3)n2)ccc1OCc1ccccc1 [Example 50, 4-{2-[4-(benzyloxy)-3-ethylphenyl]imidazo[1,2-a]pyridin-3-yl}-N-{3-[2-(dimethylamino)ethyl]phenyl}pyrimidin-2-amine]	> 1000
COc1cc(N2CCSCC2)ccc1Nc1nccc(-c2c(-c3ccc(OCc4ccccc4)c(OC)c3)nc3ccccn23)n1 [Example 51, 4-{2-[4-(benzyloxy)-3-methoxyphenyl]imidazo[1,2-a]pyridin-3-yl}-N-(2-methoxy-4-thiomorpholin-4-ylphenyl)pyrimidin-2-amine]	501 to 1000

Source: patent publication US8354422B2, “Pyrimidine inhibitors of kinase activity” (Abbott Laboratories Inc., priority 2009, dated 2013)
